Experimental data reported in ChEMBL document CHEMBL1201862, “PubChem BioAssay data set” (2004).
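Grown in 96-well plates, cells were treated for 48 hours with each compound at five concentrations. Insufficient inhibition: endpoint recorded as highest concentration tested. The concentration for 50% growth inhibition is given as GI50.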 Activity calls are given as the source filed them. No stated cut-off is given here; in the data, active = GI50 up to about 1.1 µM and inactive = higher.

Key:
Test in all cases: NCI-60 cell line screen, 48 h
[1] = test system: SR
[2] = test system: UO-31
[3] = test system: SNB-19
[4] = test system: COLO 205
[5] = test system: SK-MEL-2
[6] = test system: HT-29
[7] = test system: U-251
[8] = test system: LOX IMVI
[9] = test system: Malme-3M
[10] = test system: MOLT-4
[11] = test system: K562
[12] = test system: SK-MEL-28
[13] = test system: CCRF-CEM
[14] = test system: HCT-116
[15] = test system: TK-10
[16] = test system: SK-MEL-5
[17] = test system: SF-539
[18] = test system: UACC-62
[19] = test system: SK-OV-3

Measured: GI50

OCc1cc2ccncc2c2c1[nH]c1ccccc12
inactive: [1] 2.83 µM | [2] 7.53 µM | [3] 6.49 µM | [4] 6.82 µM | [5] 12.1 µM | [6] 4.58 µM | [7] 6.25 µM | [8] 3.44 µM | [9] 6.95 µM | [10] 3.66 µM | [11] 7.55 µM | [12] 9.35 µM | [13] 7.33 µM | [14] 3.74 µM | [15] 11.8 µM | [16] 8 µM | [17] 3.72 µM

C=CNC(=S)n1nc(-c2ccccc2NC(=O)C(F)(F)F)c(=O)n(C(=S)NC=C)c1=S
inactive: [1] 16.4 µM | [2] 13.9 µM | [3] 28.6 µM | [4] > 10 µM | [5] 73.3 µM | [6] 18.6 µM | [7] 34.9 µM | [8] 31.8 µM | [9] 56.2 µM | [10] 15.4 µM | [11] 18.1 µM | [18] 45.8 µM | [19] 30.3 µM | [12] > 100 µM | [13] 24.9 µM | [14] > 100 µM | [15] > 100 µM | [16] 13.3 µM

CCOC(=O)/C=C(\C)c1ccc(C)cc1C
inactive: [1] 4.46 µM | [2] > 100 µM | [3] > 100 µM | [4] > 100 µM | [5] 45.2 µM | [6] > 100 µM | [7] > 100 µM | [8] 16.3 µM | [9] 26.1 µM | [10] > 100 µM | [11] 45.1 µM | [12] 21.9 µM | [13] 49.2 µM | [14] > 100 µM | [15] 33.8 µM | [16] 34.3 µM | [17] > 100 µM

O=c1[nH]c2ccc([N+](=O)[O-])cc2nc1/C(=N/Nc1ccccc1)C(O)c1ccco1 (configuration not stated)
inactive: [1] 66.2 µM | [2] 44.2 µM | [3] > 100 µM | [4] 38.8 µM | [5] > 100 µM | [6] 66.8 µM | [7] > 100 µM | [8] > 100 µM | [9] 63.8 µM | [10] 38.5 µM | [11] 35.2 µM | [18] 32.2 µM | [19] > 100 µM | [12] > 100 µM | [13] 16.6 µM | [14] 73.1 µM | [15] > 100 µM | [16] 25.8 µM | [17] > 100 µM

CCOC(=O)NC(=O)c1cn(C2CCCCC2)c(=O)n(C)c1=O
inactive: [1] > 100 µM | [2] > 100 µM | [3] > 100 µM | [4] > 100 µM | [5] > 100 µM | [6] > 100 µM | [7] > 100 µM | [8] > 100 µM | [9] > 100 µM | [10] > 100 µM | [11] > 100 µM | [18] > 100 µM | [19] > 100 µM | [12] > 100 µM | [13] > 100 µM | [14] > 100 µM | [15] > 100 µM | [16] > 100 µM | [17] > 100 µM

Nc1nncc2c1ccn2C1OC(CO)C(O)C1O (configuration not stated)
inactive: [1] > 100 µM | [2] > 100 µM | [3] > 100 µM | [4] > 100 µM | [5] > 100 µM | [6] > 100 µM | [7] > 100 µM | [8] > 100 µM | [9] > 100 µM | [10] > 100 µM | [11] > 100 µM | [18] > 100 µM | [19] > 100 µM | [12] 82.8 µM | [13] > 100 µM | [14] > 100 µM | [15] > 100 µM | [16] > 100 µM | [17] > 100 µM

COc1ccc(C2c3cc4c(cc3OC(Nc3ccccc3)C2C)OCO4)cc1 (configuration not stated)
inactive: [1] 2.42 µM | [2] 29.5 µM | [3] > 100 µM | [4] 36.1 µM | [5] > 100 µM | [6] 31.7 µM | [7] 56.8 µM | [8] 27.7 µM | [9] 63.5 µM | [10] 11.2 µM | [11] 15.2 µM | [18] 52.8 µM | [19] > 100 µM | [12] > 100 µM | [13] 14.1 µM | [14] 12.7 µM | [15] 91.6 µM | [16] 79.4 µM | [17] > 100 µM

CCC1(C)NN=c2s/c(=C/c3ccc(OC)cc3)c(=O)n2N1 (configuration not stated)
inactive: [1] > 100 µM | [2] > 100 µM | [3] > 100 µM | [4] > 100 µM | [5] > 100 µM | [6] > 100 µM | [7] > 100 µM | [8] > 100 µM | [9] > 100 µM | [10] > 100 µM | [11] > 100 µM | [18] > 100 µM | [19] > 100 µM | [12] > 100 µM | [13] > 100 µM | [14] > 100 µM | [15] > 100 µM | [16] > 100 µM | [17] 90.6 µM
